{"source": "patent US4330529A", "about": "“Antibacterial composition” (Fujisawa Pharmaceutical Co., Ltd., priority 1979, dated 1982)", "key": {"[1]": {"system": "Enterobacter aerogenes 1402-10", "test": "MIC and FIC, Nutrient agar (Tests 2, 3)", "format": "cell-based", "conditions": "Klebsiella aerogenes, 140210; E. aerogenes 1402-10; 20 h; read-out: MIC"}, "[2]": {"system": "Salmonella paratyphi A-1015", "test": "MIC and FIC, Nutrient agar (Test 2)", "format": "cell-based", "conditions": "Salmonella enterica; S. paratyphi A-1015; 20 h", "procedure": "(§9) After the incubation was carried out at 37° C. for 20 hours, MIC values were determined.\n(§10) FIC values and FIC Index were calculated in substantially the same manner as described in Test 1."}, "[3]": {"system": "Proteus morganii 1433-2", "test": "MIC and FIC, Nutrient agar (Tests 2, 3)", "format": "cell-based", "conditions": "Morganella morganii, 14332; P. morganii 1433-2; 20 h", "procedure": "as §9"}, "[4]": {"system": "Salmonella typhimurium 1406", "test": "MIC and FIC, Nutrient agar (Tests 2, 3)", "format": "cell-based", "conditions": "Salmonella enterica, TYPHIMURIUM, 20 h"}, "[5]": {"system": "Shigella flexneri Ia EW-8", "test": "MIC and FIC, Nutrient agar (Test 2)", "format": "cell-based", "conditions": "IAEW8, S. flexneri Ia EW-8, 20 h", "procedure": "as §9"}, "[6]": {"system": "Alcaligenes faecalis 1311-1", "test": "MIC and FIC, Nutrient agar (Test 2)", "format": "cell-based", "conditions": "13111, A. faecalis 1311-1, 20 h", "procedure": "as §9, §10"}, "[7]": {"system": "Serratia marcescens 1421-4", "test": "MIC and FIC, Nutrient agar (Tests 2, 3)", "format": "cell-based", "conditions": "Serratia marcescens, 14214, 20 h"}, "[8]": {"system": "Salmonella enteritidis 1891", "test": "MIC and FIC, Nutrient agar (Test 2)", "format": "cell-based", "conditions": "Salmonella enterica; S. enteritidis 1891; 20 h", "procedure": "as §9"}, "[9]": {"system": "Proteus vulgaris IAM-1025", "test": "MIC and FIC, Nutrient agar (Test 2)", "format": "cell-based", "conditions": "IAM1025, P. vulgaris IAM-1025, 20 h", "procedure": "as §9, §10"}, "[10]": {"system": "Klebsiella pneumoniae NCTC 418", "test": "MIC and FIC, Nutrient agar (Tests 2, 3)", "format": "cell-based", "conditions": "NCTC418, K. pneumoniae NCTC 418, 20 h", "procedure": "as §9"}, "[11]": {"system": "Staphylococcus epidermidis 1601-1", "test": "MIC and FIC, Nutrient agar (Tests 2, 3)", "format": "cell-based", "conditions": "16011, S. epidermidis 1601-1, 20 h", "procedure": "as §9"}, "[12]": {"system": "Proteus mirabilis 1432-75", "test": "MIC and FIC, Nutrient agar (Tests 2, 3)", "format": "cell-based", "conditions": "Proteus mirabilis, 143275; P. mirabilis 1432-75; 20 h; read-out: MIC"}, "[13]": {"system": "Enterobacter cloacae 1401-4", "test": "MIC and FIC, Nutrient agar (Tests 2, 3)", "format": "cell-based", "conditions": "Enterobacter cloacae, 14014, 20 h, E. cloacae 1401-4"}, "[14]": {"system": "Pseudomonas aeruginosa 1101-7", "format": "in vivo, mice (ICR-strain male)", "conditions": "P. aeruginosa 1101-7", "method": "(§1) ICR-strain male mice weighing 23-25 g (10 mice per one group) were used. A prescribed amount of the pathogenic bacteria suspended in 5% aqueous mucin suspension (0.5 ml.) was inoculated intraperitoneally into each mouse. One hour after the inoculation, the antibiotics as mentioned in the following table were administered subcutaneously, and then survival of the test mice was measured one week after the infection to determine ED50 value.\n(§2) Incidentally, FIC values and FIC index in this in vivo test also calculated from the determined ED50 values according to the following calculation method.\n(§3) On the basis of the fact that the combination ratio of a mixture of monosodium salt of 3-(N-acetyl-N- hydroxyamino)propylphosphonic acid and monosodium salt of nocardicin A is 1:1 (by weight), each of FIC values and FIC index was calculated according to the following equations.\n(§4) FIC of monosodium salt of 3-(N-acetyl-N-hydroxyamino)propylphosphonic acid=1/2 C'ab/A'o\n(§5) FIC of monosodium salt of nocardicin A=1/2 C'ab/B'o\n(§6) FIC index=1/2 C'ab/A'o+1/2 C'ab/B'o"}, "[15]": {"system": "Pseudomonas aeruginosa 1101-5", "format": "in vivo, mice (ICR-strain male)", "conditions": "P. aeruginosa 1101-5", "method": "as §1, §2, §3, §4, §5, §6"}, "[16]": {"system": "Serratia marcescens 1421-1", "test": "microbe, parasite or virus in culture", "format": "cell-based", "method": "(§7) Further, in order to observe the degree of synergistic antimicrobial activity, Fractional Inhibitory Concentration (FIC) values and FIC Index were calculated from the determined MIC values according to the following calculation method, respectively.\n(§8) In the case that the combination ratio of a mixture of monosodium salt of 3-(N-acetyl-N-hydroxyamino)propylphosphonic acid and monosodium salt of nocardicin A is m:n (by weight), each of FIC values and FIC indexes was calculated according to the following equations. [formula]"}, "[17]": {"system": "Pseudomonas aeruginosa 1101-63", "test": "microbe, parasite or virus in culture", "format": "cell-based", "method": "as §7, §8"}, "[18]": {"system": "Klebsiella pneumoniae 1391-1", "test": "microbe, parasite or virus in culture", "format": "cell-based", "method": "as §7, §8"}, "[19]": {"system": "Serratia marcescens 1421-3", "test": "microbe, parasite or virus in culture", "format": "cell-based", "method": "as §7, §8"}, "[20]": {"system": "Serratia marcescens 1421-4", "test": "microbe, parasite or virus in culture", "format": "cell-based", "method": "as §7, §8"}, "[21]": {"system": "Pseudomonas aeruginosa 1101-67", "test": "MIC and FIC, Nutrient broth (Test 1)", "format": "cell-based", "method": "as §7, §8"}, "[22]": {"system": "Pseudomonas aeruginosa 1101-66", "test": "MIC and FIC, Nutrient broth (Test 1)", "format": "cell-based", "method": "as §7, §8"}, "[23]": {"system": "Escherichia coli 1341-27", "test": "MIC and FIC, Nutrient broth (Test 1)", "format": "cell-based", "method": "as §7, §8"}, "[24]": {"system": "Klebsiella pneumoniae 1391-5", "test": "MIC and FIC, Nutrient broth (Test 1)", "format": "cell-based", "method": "as §7, §8"}, "[25]": {"system": "Klebsiella pneumoniae 1391-2", "test": "MIC and FIC, Nutrient broth (Test 1)", "format": "cell-based", "method": "as §7, §8"}, "[26]": {"system": "Escherichia coli 1341-35", "test": "MIC and FIC, Nutrient broth (Test 1)", "format": "cell-based", "method": "as §7, §8"}, "[27]": {"system": "Pseudomonas aeruginosa 1101-64", "test": "MIC and FIC, Nutrient broth (Test 1)", "format": "cell-based", "method": "as §7, §8"}, "[28]": {"system": "Serratia marcescens 1421-5", "test": "MIC and FIC, Nutrient broth (Test 1)", "format": "cell-based", "method": "as §7, §8"}, "[29]": {"system": "Pseudomonas aeruginosa 1101-68", "test": "MIC and FIC, Nutrient broth (Test 1)", "format": "cell-based", "method": "as §7, §8"}, "[30]": {"system": "Klebsiella pneumoniae 1391-3", "test": "MIC and FIC, Nutrient broth (Test 1)", "format": "cell-based", "method": "as §7, §8"}, "[31]": {"conditions": "s.c. 1 h after i.p. inoculation, survival at one week"}}}
{"smiles": "CC1(C)S[C@@H]2[C@H](NC(=O)[C@H](N)c3ccccc3)C(=O)N2[C@H]1C(=O)O", "note": "[B (Table 2), ampicillin]", "values": [{"measurement": "MIC", "setting": "[1]", "value": 200, "unit": "µg/mL"}, {"measurement": "MIC", "setting": "[2]", "value": 0.39, "unit": "µg/mL"}, {"measurement": "MIC", "setting": "[3]", "value": 25, "unit": "µg/mL"}, {"measurement": "MIC", "setting": "[4]", "value": 0.39, "unit": "µg/mL"}, {"measurement": "MIC", "setting": "[5]", "value": 0.78, "unit": "µg/mL"}, {"measurement": "MIC", "setting": "[6]", "value": 6.25, "unit": "µg/mL"}, {"measurement": "MIC", "setting": "[7]", "value": 25, "unit": "µg/mL"}, {"measurement": "MIC", "setting": "[8]", "value": 0.39, "unit": "µg/mL"}, {"measurement": "MIC", "setting": "[9]", "value": 0.78, "unit": "µg/mL"}, {"measurement": "MIC", "setting": "[10]", "value": 12.5, "unit": "µg/mL"}, {"measurement": "MIC", "setting": "[11]", "value": 0.2, "unit": "µg/mL"}, {"measurement": "MIC", "setting": "[12]", "value": 0.39, "unit": "µg/mL"}, {"measurement": "MIC", "setting": "[13]", "value": 100, "unit": "µg/mL"}]}
{"smiles": "CC(=O)N(O)CCCP(=O)(O)O", "note": "[A (Table 1), 3-(N-acetyl-N-hydroxyamino)propylphosphonic acid]", "values": [{"measurement": "FIC", "setting": "[14]; in 1:1 mixture C, from ED50", "value": "< 0.063"}, {"measurement": "ED50", "setting": "[14]; [31]", "value": "> 20", "unit": "mg/mouse"}, {"measurement": "FIC", "setting": "[15]; in 1:1 mixture C, from ED50", "value": "< 0.018"}, {"measurement": "ED50", "setting": "[15]; [31]", "value": "> 20", "unit": "mg/mouse"}, {"measurement": "FIC", "setting": "[16]; S. marcescens 1421-1, in 1:1 mixture C", "value": "< 0.008"}, {"measurement": "MIC", "setting": "[16]; Serratia marcescens, 14211, 20 h", "value": "> 800", "unit": "µg/mL"}, {"measurement": "FIC", "setting": "[17]; P. aeruginosa 1101-63, in 1:1 mixture C", "value": 0.063}, {"measurement": "MIC", "setting": "[17]; Pseudomonas aeruginosa, 110163, 20 h", "value": 800, "unit": "µg/mL"}, {"measurement": "FIC", "setting": "[18]; K. pneumoniae 1391-1, in 1:1 mixture C", "value": 0.125}, {"measurement": "MIC", "setting": "[18]; Klebsiella pneumoniae, 13911, 20 h", "value": 400, "unit": "µg/mL"}, {"measurement": "FIC", "setting": "[19]; S. marcescens 1421-3, in 1:1 mixture C", "value": "< 0.063"}, {"measurement": "MIC", "setting": "[19]; Serratia marcescens, 14213, 20 h", "value": "> 800", "unit": "µg/mL"}, {"measurement": "FIC", "setting": "[20]; S. marcescens 1421-4, in 1:1 mixture C", "value": "< 0.031"}, {"measurement": "MIC", "setting": "[20]; Serratia marcescens, 14214, 20 h", "value": "> 800", "unit": "µg/mL"}, {"measurement": "FIC", "setting": "[21]; P. aeruginosa 1101-67, in 1:1 mixture C", "value": 0.250}, {"measurement": "MIC", "setting": "[21]; Pseudomonas aeruginosa, 110167, 20 h", "value": 200, "unit": "µg/mL"}, {"measurement": "FIC", "setting": "[22]; P. aeruginosa 1101-66, in 1:1 mixture C", "value": 0.125}, {"measurement": "MIC", "setting": "[22]; Pseudomonas aeruginosa, 110166, 20 h", "value": 200, "unit": "µg/mL"}, {"measurement": "FIC", "setting": "[23]; E. coli 1341-27, in 1:1 mixture C", "value": 0.125}, {"measurement": "MIC", "setting": "[23]; Escherichia coli, 134127, 20 h", "value": 200, "unit": "µg/mL"}, {"measurement": "FIC", "setting": "[24]; K. pneumoniae 1391-5, in 1:1 mixture C", "value": 0.250}, {"measurement": "MIC", "setting": "[24]; Klebsiella pneumoniae, 13915, 20 h", "value": 400, "unit": "µg/mL"}, {"measurement": "FIC", "setting": "[25]; K. pneumoniae 1391-2, in 1:1 mixture C", "value": "< 0.250"}, {"measurement": "MIC", "setting": "[25]; Klebsiella pneumoniae, 13912, 20 h", "value": "> 800", "unit": "µg/mL"}, {"measurement": "FIC", "setting": "[26]; E. coli 1341-35, in 1:1 mixture C", "value": 0.250}, {"measurement": "MIC", "setting": "[26]; Escherichia coli, 134135, 20 h", "value": 100, "unit": "µg/mL"}, {"measurement": "FIC", "setting": "[27]; P. aeruginosa 1101-64, in 1:1 mixture C", "value": "< 0.031"}, {"measurement": "MIC", "setting": "[27]; Pseudomonas aeruginosa, 110164, 20 h", "value": "> 800", "unit": "µg/mL"}, {"measurement": "FIC", "setting": "[28]; S. marcescens 1421-5, in 1:1 mixture C", "value": "< 0.016"}, {"measurement": "MIC", "setting": "[28]; Serratia marcescens, 14215, 20 h", "value": "> 800", "unit": "µg/mL"}, {"measurement": "FIC", "setting": "[29]; P. aeruginosa 1101-68, in 1:1 mixture C", "value": 0.031}, {"measurement": "MIC", "setting": "[29]; Pseudomonas aeruginosa, 110168, 20 h", "value": 800, "unit": "µg/mL"}, {"measurement": "FIC", "setting": "[30]; K. pneumoniae 1391-3, in 1:1 mixture C", "value": 0.250}, {"measurement": "MIC", "setting": "[30]; Klebsiella pneumoniae, 13913, 20 h", "value": 800, "unit": "µg/mL"}]}
